Values after ≈ are worked out from the molar mass of the structure shown.
What was measured:
[1] = test system: S. aureus ATCC 106414 (VISA); experiment: MIC microdilution (Table I-1); format: cell-based, Staphylococcus aureus; conditions: Staphylococcus aureus, read after 18 hours, read-out: MIC
Method: (§1) The microdilution method recommended by the Clinical and Laboratory Standard Institute [M07-A8, Vol. 29, N^o 2] was used. The activity of indolic compounds was tested against 29 bacterial strains belonging to 17 different species and 12 different genera (Staphylococcus, Streptococcus, Enterococcus, Listeria, Bacillus, Haemophilus, Escherichia, Klebsiella, Enterobacter, Serratia, Pseudomonas, and Acinetobacter). Bacterial inocula were prepared in Mueller Hinton broth (MH2, bioMerieux, Marcy L'Etoile, France), supplemented with 10% sheep blood for fastidious species (i.e., Streptococcus pneumoniae and Haemophilus influenzae). They were dispensed in 96 well microtiter plates (5×10^5 CFU/ml of final inoculum). Indolic compounds were added to the wells as to obtain two-fold serial concentrations (0.50-128 mg/L of final concentrations). Plates were incubated at 37° C. in ambient air, or at 37° C. in 5% CO2 enriched atmosphere for fastidious species. […] Drug-free cultures served as growth controls. Cultures receiving gentamicin, ciprofloxacin or cefotaxime served as positive controls.

[2] = test system: S. aureus ATCC 29213; experiment: MIC microdilution (Table I-1); format: cell-based, Staphylococcus aureus; conditions: Staphylococcus aureus, ATCC29213, read after 18 hours, read-out: MIC
Method: as §1

[3] = test system: S. aureus ATCC 33592 (MRSA); experiment: MIC microdilution (Table I-1); format: cell-based, Staphylococcus aureus; conditions: Staphylococcus aureus, read after 18 hours, read-out: MIC
Method: as §1

[4] = test system: S. aureus ATCC 6538; experiment: MIC microdilution (Table I-1); format: cell-based, Staphylococcus aureus; conditions: Staphylococcus aureus, ATCC6538, read after 18 hours, read-out: MIC
Method: as §1

[5] = test system: S. aureus ATCC 9144; experiment: MIC microdilution (Table I-1); format: cell-based, Staphylococcus aureus; conditions: Staphylococcus aureus, ATCC9144, read after 18 hours, read-out: MIC
Method: as §1

[6] = test system: S. aureus CIP 103428; experiment: MIC microdilution (Table I-1); format: cell-based, Staphylococcus aureus; conditions: Staphylococcus aureus, CIP103428, read after 18 hours, read-out: MIC
Method: as §1

[7] = test system: S. aureus CIP 65.25 (MRSA); experiment: MIC microdilution (Table I-1); format: cell-based, Staphylococcus aureus; conditions: Staphylococcus aureus, read after 18 hours, read-out: MIC
Method: as §1

[8] = test system: S. aureus CIP 65.6; experiment: MIC microdilution (Table I-1); format: cell-based, Staphylococcus aureus; conditions: Staphylococcus aureus, CIP65, read after 18 hours, read-out: MIC
Method: as §1

[9] = test system: S. aureus SA-1199B; experiment: MIC microdilution (Table I-1); format: cell-based, Staphylococcus aureus; conditions: Staphylococcus aureus, SA1199B, 18 h
Method: as §1

[10] = test system: S. epidermidis ATCC 12228; experiment: MIC microdilution (Table I-1); format: cell-based, Staphylococcus epidermidis; conditions: Staphylococcus epidermidis, ATCC12228, read after 18 hours, read-out: MIC
Method: as §1

[11] = test system: S. epidermidis CIP 103627; experiment: MIC microdilution (Table I-1); format: cell-based, Staphylococcus epidermidis; conditions: Staphylococcus epidermidis, CIP103627, read after 18 hours, read-out: MIC
Method: as §1

[12] = test system: S. epidermidis CIP 81.55; experiment: MIC microdilution (Table I-1); format: cell-based, Staphylococcus epidermidis; conditions: Staphylococcus epidermidis, CIP81, read after 18 hours, read-out: MIC
Method: as §1

[13] = test system: Acinetobacter baumanii ATCC 19606; experiment: MIC microdilution (Table I-1); format: cell-based; conditions: Acinetobacter baumannii, ATCC19606, read after 18 hours
Method: as §1

[14] = test system: Bacillus subtilis CIP 5262; experiment: MIC microdilution (Table I-1); format: cell-based; conditions: CIP5262, read after 18 hours, read-out: MIC
Method: as §1

[15] = test system: E. faecalis ATCC 29212; experiment: MIC microdilution (Table I-1); format: cell-based; conditions: Enterococcus faecalis, ATCC29212, read after 18 hours, read-out: MIC
Method: as §1

[16] = test system: E. faecium CIP 54.32; experiment: MIC microdilution (Table I-1); format: cell-based; conditions: Enterococcus faecium, CIP54, read after 18 hours, read-out: MIC
Method: as §1

[17] = test system: Enterobacter cloacae ATCC 13047; experiment: MIC microdilution (Table I-1); format: cell-based; conditions: ATCC13047, read after 18 hours
Method: as §1

[18] = test system: Escherichia coli ATCC 25922; experiment: MIC microdilution (Table I-1); format: cell-based; conditions: ATCC25922, read after 18 hours
Method: as §1

[19] = test system: Haemophilus influenzae ATCC 49766; experiment: MIC microdilution (Table I-1); format: cell-based; conditions: ATCC49766; Haemophilus influenzae ATCC 49766; read after 18 hours; read-out: MIC
Method: as §1

[20] = test system: Klebsiella pneumoniae ATCC 35657; experiment: MIC microdilution (Table I-1); format: cell-based; conditions: ATCC35657, read after 18 hours, read-out: MIC
Method: as §1

[21] = test system: Listeria innocua CIP 80.11; experiment: MIC microdilution (Table I-1); format: cell-based; conditions: CIP80, read after 18 hours, read-out: MIC
Method: as §1

[22] = test system: Pseudomonas aeruginosa CIP 5933; experiment: MIC microdilution (Table I-1); format: cell-based; conditions: CIP5933, read after 18 hours
Method: as §1

[23] = test system: S. agalactiae (group B) ATCC 12400; experiment: MIC microdilution (Table I-1); format: cell-based; conditions: Streptococcus agalactiae, ATCC12400, read after 18 hours, read-out: MIC
Method: as §1

[24] = test system: S. aureus ATCC 25923; experiment: MIC microdilution (Table I-1); format: cell-based; conditions: Staphylococcus aureus, ATCC25923, read after 18 hours
Method: as §1

[25] = test system: S. mitis CIP 103335; experiment: MIC microdilution (Table I-1); format: cell-based; conditions: Streptococcus mitis, CIP103335, read after 18 hours, read-out: MIC
Method: as §1

[26] = test system: S. pneumoniae ATCC 49619; experiment: MIC microdilution (Table I-1); format: cell-based; conditions: Streptococcus pneumoniae, ATCC49619, read after 18 hours
Method: as §1

[27] = test system: S. pyogenes (group A) CIP 104226; experiment: MIC microdilution (Table I-1); format: cell-based; conditions: Streptococcus pyogenes, CIP104226, read after 18 hours, read-out: MIC
Method: as §1

[28] = test system: Serratia marcescens CIP 103551; experiment: MIC microdilution (Table I-1); format: cell-based; conditions: CIP103551, read after 18 hours
Method: as §1

[29] = test system: S. pneumoniae ATCC 6303; experiment: MIC microdilution (Table I-1); format: cell-based, Streptococcus pneumoniae; conditions: Streptococcus pneumoniae, ATCC6303, read after 18 hours, read-out: MIC
Method: as §1

[30] = test system: HCT116 (human colon tumor); experiment: In vitro cytotoxicity; format: cell-based; conditions: for inhibition at 10 µM: HCT-116, HCT116, 10^−5 M, read-out: % of cellular growth inhibition; for inhibition at 1 µM: HCT-116, HCT116, 10^−6 M, read-out: % of cellular growth inhibition (converted)
Method: (§2) In vitro cytotoxicity was assayed on three cell lines—KB (human mouth carcinoma), MCR5 (human lung fibroblast) and HCT116 (human colon tumor). Results are presented in table III as % of cellular growth inhibition in presence of 10^−5 M and 10^−6 M of the tested bis-indolic derivatives.

[31] = test system: KB (human mouth carcinoma); experiment: In vitro cytotoxicity; format: cell-based; conditions: KB; for inhibition at 10 µM: 10^−5 M, read-out: % of cellular growth inhibition; for inhibition at 1 µM: 10^−6 M, read-out: % of cellular growth inhibition (converted)
Method: as §2

[32] = test system: MRC5 (human lung fibroblast); experiment: In vitro cytotoxicity; format: cell-based; conditions: for inhibition at 10 µM: MRC5, 10^−5 M, read-out: % of cellular growth inhibition; for inhibition at 1 µM: MRC5, 10^−6 M, read-out: % of cellular growth inhibition (converted)
Method: as §2

`CC(C)(C)OC(=O)NCC(NC(=O)C(=O)c1c[nH]c2cc(Br)ccc12)c1c[nH]c2ccccc12` (centres unmarked) [Compound 3, tert-Butyl(2-(2-(6-bromo-1H-indol-3-yl)-2-oxoacetamido)-2-(1H-indol-3-yl)ethyl) carbamate] gave an MIC [1] of 4 mg/L (≈ 7.61 µM), an MIC [2] of 2 mg/L (≈ 3.81 µM) and an MIC [3] of 4 mg/L (≈ 7.61 µM). The MIC [4] was 4 mg/L (≈ 7.61 µM), the MIC [5] was 4 mg/L (≈ 7.61 µM) and the MIC [6] was 4 mg/L (≈ 7.61 µM). The MIC [7] was 4 mg/L (≈ 7.61 µM), the MIC [8] was 4 mg/L (≈ 7.61 µM) and the MIC [9] was 4 mg/L (≈ 7.61 µM). The MIC [10] was 4 mg/L (≈ 7.61 µM), the MIC [11] was greater than 16 mg/L and the MIC [12] was 8 mg/L (≈ 15.2 µM). The MIC [13] was greater than 128 mg/L, the MIC [14] was 128 mg/L (≈ 244 µM) and the MIC [15] was greater than 128 mg/L. For the same compound, the MIC [16] was 32 mg/L (≈ 60.9 µM), the MIC [17] was greater than 128 mg/L and the MIC [18] was greater than 128 mg/L. It also gave an MIC [19] of 32 mg/L (≈ 60.9 µM), an MIC [20] greater than 128 mg/L and an MIC [21] greater than 128 mg/L. It also gave an MIC [22] greater than 128 mg/L, an MIC [23] of 64 mg/L (≈ 122 µM) and an MIC [24] of 4 mg/L (≈ 7.61 µM). The MIC [25] was greater than 128 mg/L, the MIC [26] was greater than 128 mg/L and the MIC [27] was 128 mg/L (≈ 244 µM). It also gave an MIC [28] greater than 128 mg/L, an MIC [29] of 64 mg/L (≈ 122 µM) and an inhibition at 10 µM [30] of 97 ± 1%. The inhibition at 1 µM [30] was 0%, the inhibition at 10 µM [31] was 100 ± 1% and the inhibition at 1 µM [31] was 4%. For the same compound, the inhibition at 10 µM [32] was 98 ± 1% and the inhibition at 1 µM [32] was 0%.

`O=C(C(=O)N1CCOCC1c1c[nH]c2ccc(Br)cc12)c1c[nH]c2ccc(Br)cc12` (centres unmarked) [Compound 6e, 1-(5-Bromo-1H-indol-3-yl)-2-(3-(5-bromo-1H-indol-3-yl)morpholino)ethane-1,2-dione] showed an inhibition at 10 µM [30] of 24 ± 6%, an inhibition at 1 µM [30] of 3% and an inhibition at 10 µM [31] of 29 ± 6%. It also gave an inhibition at 1 µM [31] of 0%, an inhibition at 10 µM [32] of 0% and an inhibition at 1 µM [32] of 0%.

Reference: US9321722B2, “Bis-indolic derivatives, their uses in particular as antibacterials” (UNIVERSITE JOSEPH FOURIER, priority 2011, dated 2016)
